In patent US20050042674A9, “Common ligand mimics: thiazolidinediones and rhodanines” (priority 2002, published 2005):
Values joined by “and” are separate entries in the source; they are usually repeats but may differ in a detail not shown here. Equal values may be shown once. Read-outs that look alike come from different tables or passages of the source.

Legend:
[1] = target: T1, alcohol dehydrogenase (ADH) (Saccharomyces cerevisiae, UniProt P00330); assay: ADH kinetic assay, spectrophotometric reduction of NAD+ at 340 nm; format: biochemical, Bakers Yeast; settings: Examples 36/37, FIG. 16/17
T1 construct: ADH from Bakers Yeast; from tissue; host or cells: bakers yeast
T1 sequence (P00330 1-348): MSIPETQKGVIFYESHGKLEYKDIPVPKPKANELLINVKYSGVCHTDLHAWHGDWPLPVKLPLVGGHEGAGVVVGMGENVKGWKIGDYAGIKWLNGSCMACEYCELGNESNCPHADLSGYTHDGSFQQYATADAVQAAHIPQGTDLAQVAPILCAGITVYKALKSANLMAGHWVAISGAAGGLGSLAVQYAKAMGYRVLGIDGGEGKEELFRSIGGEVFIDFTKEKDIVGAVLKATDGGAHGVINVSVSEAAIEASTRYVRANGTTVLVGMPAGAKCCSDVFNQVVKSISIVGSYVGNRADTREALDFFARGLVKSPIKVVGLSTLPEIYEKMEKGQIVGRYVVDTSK
Method: Solutions of 100 μl of the inhibitors in DMSO were prepared to provide a final DMSO concentration of 5% of the total assay volume. […] The reaction was then initiated with 10 μl of ADH from Bakers Yeast (3.3 μg/ml; 1:400 dilution of 1.0 mg/ml). […] Reading of the samples was continued until 300 seconds. […] The substrate was kept at a level at least 10 times the Km. The final concentration of pyruvate was about 2.5 mM.
Where only a simple read was desired, as in the case of NAD+concentration determination, 13 μl (10 M stock) of ethanol was used to drive the reaction, and 10 μl of pure enzyme (1 mg/ml) was used. NAD+was soluble at 2 mM, which allowed the concentration determination step to be skipped. In this situation, the procedure was as follows. All of the ingredients except for the enzyme were mixed together. The solution was mixed well and the absorbance at 340 nm read. The enzyme was added and read again at OD 340 after the absorbance stopped changing, generally 10 to 15 minutes after the enzyme was added.

[2] = target: Human Aldose Reductase (AR) (Homo sapiens, UniProt P15121); assay: AR kinetic assay, spectrophotometric measurement of enzyme activity at 340 nm; format: biochemical
Method: (§1) Solutions of 100 μl of the inhibitors in DMSO were prepared to provide a final DMSO concentration of 5% of the total assay volume. […] The reaction was then initiated with 10 μl of Human Aldose Reductase (1:5 dilution of 0.55 mg/ml). […] Reading of the samples was continued until 300 seconds. The final DMSO concentration in the cuvette was 5%. […] The substrate was kept at a level at least 10 times the Km.

[3] = target: glyceraldehyde-3-phosphate dehydrogenase (GAPDH) (Escherichia coli, UniProt P0A9B2); assay: GAPDH kinetic assay, spectrophotometric reduction of NAD+ at 340 nm; format: biochemical, E. coli; settings: Examples 36/37, FIG. 16/17
Sequence of glyceraldehyde-3-phosphate dehydrogenase (GAPDH) (P0A9B2 whole entry): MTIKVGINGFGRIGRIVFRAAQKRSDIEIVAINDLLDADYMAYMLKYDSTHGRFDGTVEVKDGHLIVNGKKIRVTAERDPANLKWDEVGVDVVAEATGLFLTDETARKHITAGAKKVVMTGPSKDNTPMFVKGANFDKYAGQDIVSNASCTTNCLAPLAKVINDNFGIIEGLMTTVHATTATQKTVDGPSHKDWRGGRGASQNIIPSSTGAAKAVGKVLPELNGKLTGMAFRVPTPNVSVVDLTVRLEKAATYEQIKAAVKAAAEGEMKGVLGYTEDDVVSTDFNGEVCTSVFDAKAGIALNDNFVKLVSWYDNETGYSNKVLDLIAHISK
Method: Reading of the samples was continued until 300 seconds. […] Cuvette #1 contained the control reaction (no inhibitor).
GAP for use in this experiment was deprotected from the diethyl acetal in the following manner. Water was boiled in recrystallizing dish. […] The tube was then immersed, while shaking, in the boiling water for 3 minutes.

[4] = target: inosine-5′-monophosphate dehydrogenase (IMPDH); assay: IMPDH kinetic assay, spectrophotometric reduction of NAD+ at 340 nm; format: biochemical; settings: for IC50: Examples 36/37, FIG. 16/17
Method: Solutions of 100 μl of the inhibitors in DMSO were prepared to provide a final DMSO concentration of 5% of the total assay volume. These solutions were incubated for 6 minutes at 37° C. in a 992 μl of a solution containing 0.1 M Tris-HCl, pH 8.0, 0.25 M KCl, 0.3% glycerol, 30 μM NAD+, and 600 μM IMP (inosine monophosphate). The reaction was then initiated with 8 μμl of IMPDH (0.75 μg/ml). […] Reading of the samples was continued until 300 seconds. Cuvette #1 contained the control reaction (no inhibitor), and cuvette #2 contained the positive control reaction in which Cibacron Blue was substituted for inhibitor. The substrate was kept at a level at least 10 times the Km.

[5] = target: isopropylmalate dehydrogenase (IPMDH) (Escherichia coli, UniProt P30125); assay: IPMDH kinetic assay, spectrophotometric reduction of NAD at 340 nm; format: biochemical, E. coli; settings: Examples 36/37, FIG. 16/17
Sequence of isopropylmalate dehydrogenase (IPMDH) (P30125 whole entry): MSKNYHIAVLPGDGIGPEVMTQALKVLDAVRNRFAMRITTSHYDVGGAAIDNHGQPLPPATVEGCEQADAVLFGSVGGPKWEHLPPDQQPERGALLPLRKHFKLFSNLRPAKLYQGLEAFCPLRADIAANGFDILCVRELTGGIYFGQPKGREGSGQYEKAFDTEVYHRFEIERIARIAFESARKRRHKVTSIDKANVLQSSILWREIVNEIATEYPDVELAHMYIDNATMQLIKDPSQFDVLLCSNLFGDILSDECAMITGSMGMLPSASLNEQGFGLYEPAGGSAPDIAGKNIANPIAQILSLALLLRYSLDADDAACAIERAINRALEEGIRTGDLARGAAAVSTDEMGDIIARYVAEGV
Method: Inhibitor was incubated for 5 minutes at 37° C. in a 990 μl of a solution containing 20 mM potassium phosphate, pH 7.6, 0.3 M potassium chloride, 0.2 mM manganese chloride, 109 μM NAD, and 340 μM DL-threo-3-isopropylmalic acid (IPM). […] Reading of the samples was continued until 300 seconds. The final concentration of DMSO in the cuvette was 5% of the total assay volume. […] The substrate was kept at a level at least 10 times the Km.

[6] = target: dihydrodipicolinate reductase (DHPR) (Escherichia coli, UniProt P04036); assay: DHPR kinetic assay, spectrophotometric oxidation of NADPH at 340 nm; format: biochemical; settings: Examples 36/37, FIG. 16/17
Sequence of dihydrodipicolinate reductase (DHPR) (P04036 whole entry): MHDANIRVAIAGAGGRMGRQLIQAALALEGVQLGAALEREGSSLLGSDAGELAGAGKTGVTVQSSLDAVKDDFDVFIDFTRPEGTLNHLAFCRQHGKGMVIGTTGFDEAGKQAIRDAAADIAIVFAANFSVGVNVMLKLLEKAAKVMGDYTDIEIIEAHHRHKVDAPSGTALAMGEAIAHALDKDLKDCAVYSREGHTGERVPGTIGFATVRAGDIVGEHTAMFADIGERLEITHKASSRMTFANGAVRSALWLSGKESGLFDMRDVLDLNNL
Method: DHPR was diluted in 10 mM HEPES at a pH of 7.4. DHPS (dihydrodipicolinate synthase) was not diluted and was stored in eppindorf tubes.
The L-ASA (L-aspartate semialdehyde) solution was prepared in the following manner. […] stock solution of ASA was prepared. 100 μl of the ASA stock solution was mixed with 150 μl of concentrated NaHCO3 and 375 μl of H2O. For use in the assay, 28.8 mM L-ASA was equal to 625 μl of the solution. The L-ASA stock solution was kept at a temperature of −20° C. After dilution, the pH of the 28.8 mM solution was checked and maintained between 1 and 2.
The solution for background detection was a 945 μl solution containing 0.1 HEPES (pH 7.8), 1 mM pyruvate, 6 μM NADPH, 40 μM L-ASA, and 7 μl of 1 mg/ml DHPS at 25° C. in the volumes provided above. The sample solution was then mixed and incubated for 10 minutes. Next, 500 nM solutions of the inhibitors and enough DMSO to provide a final DMSO concentration of 5% of the total assay volume were added. The solution was mixed and incubated for an additional 6 minutes.
In DHPR samples, 5 μl of the diluted DHPR enzyme were added. The sample was mixed for 20 seconds and then the reaction was run for 10 minutes. […] Reading of the samples was continued until 300 seconds. […] The substrate was kept at a level at least 10 times the Km. The final concentration of L-ASA was about 1 mM.

[7] = target: dihydrofolate reductase (DHFR) (UniProt P00374); assay: DHFR kinetic assay, spectrophotometric oxidation of NADH at 340 nm; format: biochemical
Sequence of dihydrofolate reductase (DHFR) (P00374 whole entry): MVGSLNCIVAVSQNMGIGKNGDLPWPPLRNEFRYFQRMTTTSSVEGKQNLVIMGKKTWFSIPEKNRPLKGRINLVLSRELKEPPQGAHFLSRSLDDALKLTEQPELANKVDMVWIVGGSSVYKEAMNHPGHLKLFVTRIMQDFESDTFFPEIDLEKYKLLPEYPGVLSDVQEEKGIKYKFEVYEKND
Method: H2 folate was dissolved in DMSO to about 10 mM and then diluted with water to a concentration of 0.1 mM.
Solutions of 100 μl of the inhibitors in DMSO were prepared to provide a final DMSO concentration of 5% of the total assay volume. […] The oxidation reaction was then initiated with 8 μl of DHFR (0.047 mg/ml). […] Reading of the samples was continued until 300 seconds. Cuvette #1 always contained the control reaction (no inhibitor), and cuvette #2 always contained the positive control reaction in which Cibacron Blue at 3 μM was substituted for inhibitor to yield […] inhibition. The substrate was kept at a level at least 10 times the Km.

[8] = target: T2, HMG CoA reductase (HMGCoAR) (UniProt P04035); assay: HMGCoAR kinetic assay, spectrophotometric oxidation of NADPH at 340 nm; format: biochemical; settings: Examples 36/37, FIG. 16/17
T2 sequence (P04035 1-888): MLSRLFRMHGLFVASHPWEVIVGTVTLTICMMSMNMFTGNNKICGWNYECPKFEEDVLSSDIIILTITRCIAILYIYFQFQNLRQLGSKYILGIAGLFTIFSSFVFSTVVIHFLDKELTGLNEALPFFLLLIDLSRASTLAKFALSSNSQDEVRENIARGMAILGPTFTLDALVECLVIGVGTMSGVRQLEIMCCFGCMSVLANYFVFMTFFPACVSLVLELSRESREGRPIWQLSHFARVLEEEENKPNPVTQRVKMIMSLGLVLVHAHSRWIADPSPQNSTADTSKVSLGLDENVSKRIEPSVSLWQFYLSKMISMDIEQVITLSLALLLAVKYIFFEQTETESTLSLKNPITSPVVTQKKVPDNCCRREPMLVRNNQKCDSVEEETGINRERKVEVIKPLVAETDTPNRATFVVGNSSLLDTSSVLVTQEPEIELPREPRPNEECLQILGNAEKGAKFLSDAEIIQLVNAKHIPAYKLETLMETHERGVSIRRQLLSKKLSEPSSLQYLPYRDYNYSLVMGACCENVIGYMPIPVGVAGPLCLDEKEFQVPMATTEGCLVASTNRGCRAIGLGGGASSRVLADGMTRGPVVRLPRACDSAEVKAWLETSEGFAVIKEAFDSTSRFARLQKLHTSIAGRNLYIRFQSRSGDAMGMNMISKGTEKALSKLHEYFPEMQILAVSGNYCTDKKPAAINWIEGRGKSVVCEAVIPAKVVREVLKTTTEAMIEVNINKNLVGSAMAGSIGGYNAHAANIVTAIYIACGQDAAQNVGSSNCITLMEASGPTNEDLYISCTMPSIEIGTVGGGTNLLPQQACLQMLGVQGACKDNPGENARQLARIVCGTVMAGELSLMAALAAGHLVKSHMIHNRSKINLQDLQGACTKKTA
Method: For HMGCoAR analysis, the compounds were screened using a kinetic protocol that spectrophotometrically evaluates oxidation of NADPH.
Stock solutions of each of the reagents were prepared in the following concentrations. Dilutions of the stock solutions were prepared prior to running the assay in the concentrations indicated below. The enzyme was diluted in 1 M NaCl. To prepare the dilution buffer, 10 μl of HMGCoAR (1 mg/ml) was mixed with 133 μl of 3 M NaCl solution and 257 μl of 25 mM KH2PO4 buffer (pH 7.5; containing 50 mM NaCl, μl mM EDTA (ethylenediaminetetraacetic acid), and 5 mM DTT (dithiothreitol).
The HMGCoAR reaction was monitored at 340 nm prior to and after addition of the inhibitor to detect background reaction with the inhibitor. Solutions of 500 nM of the inhibitors in DMSO were prepared to provide a final DMSO concentration of 2% of the total assay volume. […] The reaction was then initiated with 5 μl of HMGCoAR enzyme (1:40 dilution of 0.65 mg/ml). After the enzyme was added, the solution was mixed for 20 seconds, and the reaction was run for 10 minutes. After a 50 second lag, the samples were read in a Cary spectrophotometer at 340 nm. Reading of the samples was continued until 300 seconds. […] The substrate was kept at a level at least 10 times the Km.

[9] = target: 1-deoxy-D-xylulose-5-phosphate reductase (DOXPR) (Escherichia coli, UniProt P45568); assay: DOXPR kinetic assay, spectrophotometric oxidation of NADPH at 340 nm; format: biochemical; settings: Examples 36/37, FIG. 16/17
Sequence of 1-deoxy-D-xylulose-5-phosphate reductase (DOXPR) (P45568 whole entry): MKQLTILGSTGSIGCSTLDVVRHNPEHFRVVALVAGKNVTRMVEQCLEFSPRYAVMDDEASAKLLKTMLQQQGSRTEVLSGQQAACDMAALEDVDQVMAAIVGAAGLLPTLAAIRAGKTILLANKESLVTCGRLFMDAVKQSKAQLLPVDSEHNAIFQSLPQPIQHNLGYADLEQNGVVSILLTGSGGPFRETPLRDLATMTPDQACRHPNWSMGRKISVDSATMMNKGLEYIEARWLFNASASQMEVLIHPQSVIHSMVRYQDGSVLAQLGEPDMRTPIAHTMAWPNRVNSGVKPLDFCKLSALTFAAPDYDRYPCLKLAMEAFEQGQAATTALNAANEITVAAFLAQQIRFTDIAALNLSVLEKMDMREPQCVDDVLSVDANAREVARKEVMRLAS
Method: DOXPR was diluted in 10 mM HEPES at a pH of 7.4.
Solutions of the inhibitors in DMSO were prepared to provide a final DMSO concentration of 5% of the total assay volume. […] The oxidation reaction was then initiated with 10 μl of DOXP reductoisomerase (10 μg/ml). […] Reading of the samples was continued until 300 seconds. […] The substrate was kept at a level at least 10 times the Km.

[10] = target: T3, lactate dehydrogenase (LDH) (Oryctolagus cuniculus, UniProt P13491); assay: LDH kinetic assay, spectrophotometric oxidation of NADH at 340 nm; format: biochemical, Rabbit
T3 construct: LDH from Rabbit Muscle; from tissue; host or cells: rabbit muscle
Method: as §1, with “LDH from Rabbit Muscle (0.5 μ/ml; 1:2000” for “Human Aldose Reductase (1:5”, “1.0” for “0.55”, “seconds.” for “seconds. The final DMSO concentration in the cuvette was 5%.”

O=C1NC(=O)C(=Cc2ccc(-c3ccc(C(=O)O)cc3)o2)S1 [Compound 5a, 4-[5-(2,4-dioxo-thiazolidin-5-ylidenemethyl)-furan-2-yl]-benzoic acid]
IC50 [1]: 116 µM and 140 µM | IC50 ([2]; Examples 36/37, FIG. 16/17): 2.26 µM and 4.1 µM | IC50 ([3]; read-out: IC50 for GAPDH): > 200 µM | IC50 [4]: 58.8 µM | IC50 ([4]; listed as Sa): > 200 µM | IC50 [5]: > 200 µM | IC50 ([6]; read-out: IC50 for DHPR): > 200 µM | inhibition of DHFR ([7]; Example 37, result in words): No inhibiiton | IC50 ([7]; Examples 36/37, FIG. 16/17; read-out: IC50 for DHFR): > 75 µM

O=C1NC(=O)C(=Cc2ccc(-c3cccc(C(=O)O)c3)o2)S1 [Compound 5b, 3-[5-(2,4-dioxo-thiazolidin-5-ylidenemethyl)-furan-2-yl]-benzoic acid]
IC50 [8]: > 400 µM | IC50 ([3]; IC50 for GAPDH): > 400 µM | inhibition of IMPDH ([4]; Example 37, result in words): No inhibition | IC50 ([6]; IC50 for DHPR): > 400 µM | IC50 ([9]; IC50 for DOXPR): > 400 µM

O=C1NC(=O)C(=Cc2ccc(-c3ccc(O)c(C(=O)O)c3)o2)S1 [Compound 5e, 5-[5-(2,4-dioxo-thiazolidin-5-ylidenemethyl)-furan-2-yl]-2-hydroxy-benzoic acid]
IC50 [1]: 21 µM | inhibition of AR ([2]; Examples 36/37, result in words): No inhibition | IC50 ([3]; read-out: IC50 for GAPDH): > 200 µM | IC50 [4]: 2.15 µM | IC50 [5]: > 50 µM | IC50 ([6]; read-out: IC50 for DHPR): > 200 µM | IC50 ([9]; read-out: IC50 for DOXPR): > 100 µM | inhibition of DHFR ([7]; Example 37, result in words): No inhibition | IC50 ([10]; Examples 36/37, FIG. 16/17): 46 µM

O=C1NC(=S)SC1=Cc1ccc(-c2ccc(O)c(C(=O)O)c2)o1 [Compound 7e, 2-hydroxy-5-[5-(4-oxo-2-thioxo-thiazolidin-5-ylidenemethyl)-furan-2-yl]-benzoic acid]
IC50 [1]: 3.4 µM | IC50 [8]: 0.143 µM | IC50 ([6]; IC50 for DHPR): 2.1 µM | IC50 ([9]; IC50 for DOXPR): 1.6 µM | IC50 ([7]; read-out: IC50 for DHFR; Examples 36/37, FIG. 16/17): 4.3 µM | IC50 ([10]; Example 37, FIG. 17): 0.34 µM
